The experiment concerns A15T3 dsDNA (DNA, duplex) AAAAAAAAAAAAAAATCGTCGTCGTCGTCGTCGAAAAAAAAAAAAAAAAAGCAGTTGATCGTTTGGATACCCTGG/TTCGACGACGACGACGACGATTT
The experiment is described as follows: fluorescence quenching, log[(F0-F)/F] against log[DNA]. The settings on record: unit not given; free DNA presumed to be A15T3 dsDNA; buffer of titration not stated.

For the compound `COc1cccc2c1C(=O)c1c(O)c3c(c(O)c1C2=O)C[C@@](O)(C(=O)CO)C[C@@H]3O[C@H]1C[C@H](N)[C@H](O)[C@H](C)O1`, the K stood at 0.026.
